The values below come from patent publication US20050037946A1, “Methods and compositions for treating cardiovascular disease using 1722, 10280, 59917, 85553, 10653, 9235, 21668, 17794, 2210, 6169, 10102, 21061, 17662, 1468, 12282, 6350, 9035, 1820, 23652, 7301, 8925, 8701, 3533, 9462, 9123, 12788, 17729, 65552, 1261, 21476, 33770, 9380, 2569654, 33556, 53656, …” (Millennium Pharmaceuticals, Inc., priority 2003, published 2005).

For data set [1] the following is noted: humans; cited from earlier work.
For data set [2], the system named is serine/threonine kinase Akt. Particulars: primary human peripheral blood monocytes; cited from earlier work.
In another data set the test system is 9035 mRNA. Kind of data set: 9035 mRNA in cultured human monocytes and macrophages (TaqMan). Format: cell-based. The settings on record: 18 hours of stimulation. The text has this: (§1) This example describes the TaqMan™ procedure. The Taqman™ procedure is a quantitative, reverse transcription PCR-based approach for detecting mRNA. The RT-PCR reaction exploits the 5′ nuclease activity of AmpliTaq Gold™ DNA Polymerase to cleave a TaqMan™ probe during PCR. Briefly, cDNA was generated from the samples of interest, e.g., heart, kidney, liver, skeletal muscle, and various vessels, and used as the starting material for PCR amplification. In addition to the 5′ and 3′ gene-specific primers, a gene-specific oligonucleotide probe (complementary to the region being amplified) was included in the reaction (i.e., the Taqman™ probe). […]
(§2) During the PCR reaction, cleavage of the probe separates the reporter dye and the quencher dye, resulting in increased fluorescence of the reporter. Accumulation of PCR products is detected directly by monitoring the increase in fluorescence of the reporter dye. When the probe is intact, the proximity of the reporter dye to the quencher dye results in suppression of the reporter fluorescence. […]
(In general: Quantitative PCR measures a nucleic acid by following its amplification.)

For another data set, the system named is Syk. The data set is described as follows: 1673 (Syk) expression in monocytes and macrophages (TaqMan). The settings on record: monocytes or macrophages. It is filed as cell-based.
Excerpt: as §1, §2

A further data set has as its system 33556 mRNA. The data set is described as follows: 33556 mRNA in cultured human macrophages (TaqMan). Format: cell-based. The settings on record: 18h of stimulation.
Excerpt: as §1, §2

For the next data set, the system named is 261 mRNA. The data set is described as follows: 261 mRNA in cultured human monocytes and macrophages (TaqMan). It is filed as cell-based.
Excerpt: as §1, §2

The next data set concerns 12282 mRNA. The data set is described as follows: 12282 mRNA in cultured human monocytes and macrophages (TaqMan). It is filed as cell-based. The settings on record: 18 hours of stimulation.
Excerpt: as §1, §2

The next data set has as its system 1261 mRNA. The data set is described as follows: 1261 mRNA in statically cultured or shear-stressed cells (TaqMan). Format: cell-based. The text has this:
(§3) This example describes the TaqMan™ procedure. The Taqman™ procedure is a quantitative, reverse transcription PCR-based approach for detecting mRNA. The RT-PCR reaction exploits the 5′ nuclease activity of AmpliTaq Gold™ DNA Polymerase to cleave a TaqMan™ probe during PCR. Briefly, cDNA was generated from the samples of interest, e.g., heart, kidney, liver, skeletal muscle, and various vessels, and used as the starting material for PCR amplification. In addition to the 5′ and 3′ gene-specific primers, a gene-specific oligonucleotide probe (complementary to the region being amplified) was included in the reaction (i.e., the Taqman™ probe). The TaqMan™ probe includes the oligonucleotide with a fluorescent reporter dye covalently linked to the 5′ end of the probe (such as FAM (6-carboxyfluorescein), TET (6-carboxy4,7,2′,7′-tetrachlorofluorescein), JOE (6-carboxy-4,5-dichloro-2,7-dimethoxyfluorescein), or VIC) and a quencher dye (TAMRA (6-carboxy-N,N,N′,N′-tetramethylrhodamine) at the 3′ end of the probe.
(§4) During the PCR reaction, cleavage of the probe separates the reporter dye and the quencher dye, resulting in increased fluorescence of the reporter. Accumulation of PCR products is detected directly by monitoring the increase in fluorescence of the reporter dye. When the probe is intact, the proximity of the reporter dye to the quencher dye results in suppression of the reporter fluorescence. During PCR, if the target of interest is present, the probe specifically anneals between the forward and reverse primer sites. The 5′-3′ nucleolytic activity of the AmpliTaq™ Gold DNA Polymerase cleaves the probe between the reporter and the quencher only if the probe hybridizes to the target. The probe fragments are then displaced from the target, and polymerization of the strand continues. The 3′ end of the probe is blocked to prevent extension of the probe during PCR. […] RNA was prepared using the trizol method and treated with DNase to remove contaminating genomic DNA. cDNA was synthesized using standard techniques.

Data set [3] concerns the target 1722 (Protein Kinase C mu or PKD) (Homo sapiens, UniProt Q15139). The settings on record: Biochem Pharmacol. 2001; cited from earlier work.
For data set [4], the system named is 2569654 mRNA. Kind of data set: 2569654 mRNA in marmoset models (TaqMan). Format: in vivo.
Excerpt: as §3, §4

A further data set has as its system 3533 mRNA. Kind of data set: 3533 mRNA regulation by lipid lowering drugs (TaqMan).
Excerpt: as §3, §4

The subject of the next data set is 17729 mRNA. Kind of data set: 17729 mRNA in ApoE knockout mouse models, cholesterol feeding (TaqMan). Format: in vivo.
Excerpt: as §1, §2

The next data set deals with 9325 mRNA. The data set is described as follows: 9325 mRNA in liver of ApoE knockout mice, cholesterol feeding (TaqMan). Format: in vivo. The settings on record: two and six months of cholesterol feeding of ApoE knockout mice.
Excerpt: as §1, §2

The test system of the next data set is 112091. Kind of data set: 112091 expression in livers of African Green Monkeys, cholesterol. It is filed as in vivo.
The subject of data set [5] is 10653 mRNA. The data set is described as follows: 10653 mRNA in livers of African Green Monkeys, cholesterol (TaqMan). Format: in vivo. Particulars: p=0.05.
Excerpt: as §1, §2

The next data set deals with 6169 mRNA. The data set is described as follows: 6169 mRNA in liver of African Green Monkeys, lipid feeding (TaqMan). Particulars: feeding / in the diet. Format: in vivo.
A further data set deals with 19319 mRNA. The data set is described as follows: 19319 mRNA in ApoE knock-out mice, cholesterol (TaqMan). Format: in vivo.
Excerpt: as §1, §2

In data set [6] the test system is 2569654 mRNA. Kind of data set: 2569654 mRNA in livers of ApoE knock out mice with cholesterol feeding (TaqMan). The settings on record: livers of ApoE knock out (KO) mice with cholesterol feeding. Format: in vivo.
Excerpt: as §1, §2

Another data set concerns 554 mRNA. Kind of data set: 554 mRNA in livers of African Green Monkeys, cholesterol. It is filed as in vivo.
Data set [7] relates to 10653 mRNA. Kind of data set: 10653 mRNA in liver of ApoE knockout mice, cholesterol feeding (TaqMan). It is filed as in vivo. The settings on record: two and six months of cholesterol feeding of ApoE knockout mice.
Excerpt: as §1, §2

In another data set the test system is 54946 mRNA. Kind of data set: 54946 mRNA in livers of Apo E knock out mice, cholesterol (microarray or RT-PCR). It is filed as in vivo. Particulars: livers of Apo E knock out mice relative to wild-type controls, p=0.001.
A further data set relates to 9235 mRNA. Kind of data set: 9235 mRNA in livers of African Green Monkeys, cholesterol (TaqMan). Format: in vivo. Particulars: p=0.09.
Excerpt: as §1, §2

The test system of a further data set is 43969. The data set is described as follows: 43969 expression in livers of ApoE knock-out mice administered cholesterol (TaqMan). It is filed as in vivo.
Excerpt: as §1, §2

Another data set concerns 8701 mRNA. Kind of data set: 8701 mRNA in livers of marmosets treated with lipid-lowering therapies (TaqMan). It is filed as in vivo.
For another data set, the system named is 7301 mRNA. The data set is described as follows: 7301 mRNA in livers of marmosets treated with lipid-lowering therapies (TaqMan). Format: in vivo.
Excerpt: as §1, §2

The subject of a further data set is 10102 mRNA. Kind of data set: 10102 mRNA regulation by lipid lowering drugs (TaqMan).
In another data set the test system is 9123 mRNA. Kind of data set: 9123 mRNA in livers of marmosets treated with lipid-lowering therapies (TaqMan). Format: in vivo.
Excerpt: as §1, §2

Data set [8] concerns 10653 mRNA. The data set is described as follows: 10653 mRNA in livers of marmosets treated with lipid-lowering therapies (TaqMan). It is filed as in vivo.
A further data set has as its system 13886 mRNA. Kind of data set: 13886 mRNA in aortas of treated rats (TaqMan). Format: in vivo. The settings on record: seven days, vs vehicle treated controls, p<0.005 ANOVA.
Excerpt: as §1, §2

Another data set relates to isolated hepatocytes. Particulars: via the CCK-B receptor; cited from earlier work.
Another data set relates to glycine cleavage system. The settings on record: cited from earlier work.

Sequence of 1722 (Protein Kinase C mu or PKD) (Q15139 whole entry): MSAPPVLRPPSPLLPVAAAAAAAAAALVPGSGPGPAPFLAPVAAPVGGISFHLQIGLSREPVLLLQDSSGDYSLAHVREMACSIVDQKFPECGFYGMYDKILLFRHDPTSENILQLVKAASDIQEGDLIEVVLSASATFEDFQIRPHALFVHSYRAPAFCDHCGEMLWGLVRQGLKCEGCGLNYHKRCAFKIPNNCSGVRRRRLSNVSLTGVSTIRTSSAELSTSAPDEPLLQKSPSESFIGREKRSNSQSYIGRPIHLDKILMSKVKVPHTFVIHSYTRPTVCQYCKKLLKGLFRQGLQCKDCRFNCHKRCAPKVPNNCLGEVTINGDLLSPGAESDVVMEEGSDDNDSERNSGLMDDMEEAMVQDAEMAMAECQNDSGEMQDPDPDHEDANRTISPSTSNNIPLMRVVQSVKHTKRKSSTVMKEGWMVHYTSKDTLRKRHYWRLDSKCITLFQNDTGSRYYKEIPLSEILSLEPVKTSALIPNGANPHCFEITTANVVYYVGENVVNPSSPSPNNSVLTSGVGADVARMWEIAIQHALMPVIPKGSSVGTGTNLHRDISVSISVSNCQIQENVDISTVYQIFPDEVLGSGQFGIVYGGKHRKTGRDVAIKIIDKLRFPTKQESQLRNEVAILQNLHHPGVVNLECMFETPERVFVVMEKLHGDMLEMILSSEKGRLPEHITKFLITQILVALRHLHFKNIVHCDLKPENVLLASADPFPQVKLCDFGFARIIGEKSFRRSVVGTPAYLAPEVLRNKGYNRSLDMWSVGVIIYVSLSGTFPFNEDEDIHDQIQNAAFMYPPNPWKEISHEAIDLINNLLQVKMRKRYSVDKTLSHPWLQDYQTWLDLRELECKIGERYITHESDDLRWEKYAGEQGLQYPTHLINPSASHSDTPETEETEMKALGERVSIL

In the case of `CC1=C(/C=C/C(C)=C\C=C\C(C)=C\C(=O)O)C(C)(C)CCC1` [9-cis retinoic acid], the lipid profile result in data set [1] is “increase total cholesterol, ILDL-cholesterol, apoB and triglyceride levels and decrease HDL-cholesterol”.
Turning to interferon gamma, the “phosphorylation of the serine/threonine kinase Akt” value in data set [2] is listed as “induces”. For the same molecule, the “9035 mRNA expression” value in the data set with 9035 mRNA is given as “upregulated”. The Syk expression entry in the data set with Syk is “No apparent upregulation”. Moreover, the “33556 mRNA expression” value in the data set on 33556 mRNA is given as “upregulated”. In addition, the “261 mRNA expression” value in the data set on 261 mRNA is recorded as “downregulated”. For the same molecule, in the data set on 12282 mRNA, the “12282 mRNA expression” value is reported as “upregulated”.
As for IL-1β, the “1261 expression in response to angiogenic/inflammatory stimuli” value in the data set with 1261 mRNA is reported as “transient upregulation”.
As for `Oc1ccc(C=Cc2cc(O)cc(O)c2)cc1` [Resveratrol], in [3], the “autophosphorylation of 1722” value is reported as “inhibit”.
Consider `N[C@@H](Cc1cc(I)c(Oc2ccc(O)c(I)c2)c(I)c1)C(=O)O` [T3], for which the “2569654 mRNA expression” value in the data set on 2569654 mRNA [4] is reported as “upregulated”. In addition, the “3533 mRNA expression” value in the data set with 3533 mRNA was “downregulated”.
`CC(C)CCC[C@@H](C)[C@H]1CC[C@H]2[C@@H]3CC=C4C[C@@H](O)CC[C@]4(C)[C@H]3CC[C@]12C` [cholesterol]: the “17729 mRNA expression” value with 17729 mRNA is listed as “downregulated”. Further, the “9325 mRNA downregulated” value with 9325 mRNA amounted to 1.8 fold. Also, in the data set on 112091, the 112091 expression entry was “down-regulated”. For the same molecule, the “10653 mRNA downregulated” value is on record as 1.5 fold with 10653 mRNA [5] and 1.3 fold with 10653 mRNA [7]. For the same molecule, in the data set with 6169 mRNA, the “6169 mRNA downregulated” value worked out at 1.3 fold. Further, the “19319 mRNA expression” value in the data set on 19319 mRNA is reported as “downregulated”. Further, the “2569654 mRNA expression” value with 2569654 mRNA [6] was “significantly downregulated”. Also, in the data set with 554 mRNA, the “554 mRNA expression” value was “down-regulated”. In addition, in the data set on 54946 mRNA, the “54946 mRNA downregulated” value came to 0.62 fold. Moreover, in the data set on 9235 mRNA, the “9235 mRNA downregulated” value is 1.3 fold. In the data set with 43969, the 43969 expression entry is reported as “downregulated”.
For `Cc1ccc(C)c(OCCCC(C)(C)C(=O)O)c1` [gemfibrozil], the “8701 mRNA expression” value with 8701 mRNA is “upregulated”. For the same molecule, the “7301 mRNA expression” value in the data set with 7301 mRNA was “down-reregulated”. Further, in the data set on 10102 mRNA, the “10102 mRNA expression” value was “significantly upregulated”. Moreover, in the data set with 9123 mRNA, the “9123 mRNA expression” value is recorded as “upregulated”. Further, in the data set on 10653 mRNA [8], the “10653 mRNA expression” value was “downregualted”.
As for `COC(=O)[C@@H](N)CCCNC(=N)N[N+](=O)[O-]` [L-NAME], in the data set with 13886 mRNA, the “expression of 13886 mRNA” value was “significantly down-regulated”.
As for cholesystkinin-8 [CCK-8], the “reduction of triacylglycerol secretion” value in the data set with isolated hepatocytes is 53%.
As for TNF-α, in the data set on 1261 mRNA, the “1261 expression in response to angiogenic/inflammatory stimuli” value is “transient upregulation”.
As to `NCCS` [Cysteamine], the “inhibition of the glycine cleavage system” value in the data set with glycine cleavage system was “potent inhibitor”.
